Measurements reported in PMC7044277 (Nature Communications, 2020).
Where “and” joins values, the source holds several entries; their conditions need not be identical. Identical values can stand only once.

Experiments:
Type in all cases: cell-based
Design in all cases: GPCRome screening signal at PTGIR / GPCRome screening signal at PTH1R / GPCRome screening signal at PTH2R / GPCRome screening signal at QRFP / GPCRome screening signal at RXFP2 / GPCRome screening signal at RXFP3 / GPCRome screening signal at RXFP4 / GPCRome screening signal at S1PR2 / GPCRome screening signal at S1PR3 / GPCRome screening signal at S1PR4 / GPCRome screening signal at S1PR5 / GPCRome screening signal at SCTR / GPCRome screening signal at SSTR2 / GPCRome screening signal at SSSTR / GPCRome screening signal at SSTR4 / GPCRome screening signal at SSTR5 / GPCRome screening signal at SUCNR1 / GPCRome screening signal at TA1 / GPCRome screening signal at TAAR2 / GPCRome screening signal at TAAR5 / GPCRome screening signal at TAAR6 / GPCRome screening signal at TAAR8 / GPCRome screening signal at TACR1 / GPCRome screening signal at TACR2 / GPCRome screening signal at TACR3 / GPCRome screening signal at TBXA2R / GPCRome screening signal at TSHR / GPCRome screening signal at UTS2R / GPCRome screening signal at VIPR2 / GPCRome screening signal at GPR68 no V2 Tail / GPCRome screening signal at GRM2 / GPCRome screening signal at GRM3: reference not given here
320 non-olfactory GPCRs [1] = target: T1, 320 non-olfactory GPCRs (Homo sapiens, UniProt P21452); details: receptor TACR2
T1 construct: expressed in transfected cells; host or cells: HTLA cells

320 non-olfactory GPCRs [2] = target: 320 non-olfactory GPCRs (Homo sapiens, UniProt P25103); details: receptor TACR1
320 non-olfactory GPCRs [3] = target: 320 non-olfactory GPCRs (Homo sapiens, UniProt P30874); details: receptor SSTR2
320 non-olfactory GPCRs [4] = target: T2, 320 non-olfactory GPCRs (Homo sapiens, UniProt Q96RI9); details: receptor TAAR9
T2 construct: expressed in transfected cells; host or cells: HTLA cells

[5] = Fig_5f, single replicate values
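Throughout, for GPCRome agonism screen response: fold over basal response of each receptor without drug.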

Chain of 320 non-olfactory GPCRs (Homo sapiens, UniProt P30874) (P30874 whole entry): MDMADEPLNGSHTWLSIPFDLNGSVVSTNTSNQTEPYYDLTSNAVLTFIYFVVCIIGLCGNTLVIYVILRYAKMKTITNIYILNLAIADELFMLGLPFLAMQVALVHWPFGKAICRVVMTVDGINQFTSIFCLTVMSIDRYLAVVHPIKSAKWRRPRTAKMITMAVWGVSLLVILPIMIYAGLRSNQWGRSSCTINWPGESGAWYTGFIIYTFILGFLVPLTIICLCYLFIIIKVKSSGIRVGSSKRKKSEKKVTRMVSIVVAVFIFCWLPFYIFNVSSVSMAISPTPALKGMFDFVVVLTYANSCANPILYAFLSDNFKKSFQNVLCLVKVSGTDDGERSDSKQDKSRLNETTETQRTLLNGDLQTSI
Chain of 320 non-olfactory GPCRs (Homo sapiens, UniProt P25103) (P25103 whole entry): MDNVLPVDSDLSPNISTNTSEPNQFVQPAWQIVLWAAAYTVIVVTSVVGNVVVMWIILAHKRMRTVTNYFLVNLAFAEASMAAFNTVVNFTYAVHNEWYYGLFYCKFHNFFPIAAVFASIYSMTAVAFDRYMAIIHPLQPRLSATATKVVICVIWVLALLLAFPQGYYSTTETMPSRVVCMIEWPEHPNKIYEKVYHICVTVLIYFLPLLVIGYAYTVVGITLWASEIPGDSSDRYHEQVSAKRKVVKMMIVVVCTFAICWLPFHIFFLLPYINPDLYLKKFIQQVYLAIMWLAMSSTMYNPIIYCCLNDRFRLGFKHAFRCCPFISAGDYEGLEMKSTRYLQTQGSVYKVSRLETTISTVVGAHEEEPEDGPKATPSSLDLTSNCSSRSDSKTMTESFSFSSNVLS
T1 sequence (P21452 whole entry): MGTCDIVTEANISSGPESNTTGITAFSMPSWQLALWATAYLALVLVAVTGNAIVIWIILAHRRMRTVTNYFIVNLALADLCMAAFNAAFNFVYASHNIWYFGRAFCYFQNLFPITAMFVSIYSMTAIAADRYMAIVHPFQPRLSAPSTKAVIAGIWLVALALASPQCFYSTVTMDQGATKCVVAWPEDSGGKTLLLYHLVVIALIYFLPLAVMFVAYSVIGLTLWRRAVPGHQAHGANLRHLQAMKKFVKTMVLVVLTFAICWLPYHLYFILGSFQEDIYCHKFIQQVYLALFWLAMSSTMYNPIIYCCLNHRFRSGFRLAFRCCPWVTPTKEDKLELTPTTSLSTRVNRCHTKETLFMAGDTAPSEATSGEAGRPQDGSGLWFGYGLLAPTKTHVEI
T2 sequence (Q96RI9 whole entry): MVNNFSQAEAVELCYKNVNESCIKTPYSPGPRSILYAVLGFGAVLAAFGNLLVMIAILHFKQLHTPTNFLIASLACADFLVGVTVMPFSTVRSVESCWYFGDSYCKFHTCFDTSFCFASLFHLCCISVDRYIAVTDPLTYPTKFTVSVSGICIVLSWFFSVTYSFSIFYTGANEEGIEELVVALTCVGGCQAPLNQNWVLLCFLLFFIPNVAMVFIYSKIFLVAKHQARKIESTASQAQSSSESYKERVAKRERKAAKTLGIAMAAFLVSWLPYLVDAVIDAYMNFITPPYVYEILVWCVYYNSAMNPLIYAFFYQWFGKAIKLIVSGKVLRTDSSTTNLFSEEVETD

| SMILES | GPCRome screening signal at TACR2 (320 non-olfactory GPCRs [1]; [5]) | GPCRome screening signal at TACR1 (320 non-olfactory GPCRs [2]; [5]) | GPCRome screening signal at SSTR2 (320 non-olfactory GPCRs [3]; [5]) | GPCRome screening signal at TAAR9 (320 non-olfactory GPCRs [4]; [5]) | GPCRome agonism screen response (320 non-olfactory GPCRs [1]; replicate values, Fig_4g) | GPCRome agonism screen response (320 non-olfactory GPCRs [2]; replicate values, Fig_4g) | GPCRome agonism screen response (320 non-olfactory GPCRs [3]; replicate values, Fig_4g) | GPCRome agonism screen response (320 non-olfactory GPCRs [4]; replicate values, Fig_4g) |
| --- | --- | --- | --- | --- | --- | --- | --- | --- |
| CCOc1ccccc1CCC(C)NCC1(O)CCCCC1.Cl (racemic) [Fig_5f] | 1.32 and 1.667 and 1.261 and 1.267 | 1.29 and 1.225 and 0.9839 and 1.172 | 1.092 and 1.759 and 1.157 and 0.8246 | 1.0253 and 1.396 and 1.2735 and 0.8423 | – | – | – | – |
| CCOc1cccc2cc(C(C)NCC3(O)CCCCC3)oc12 (centres unmarked) [O4LE6] | – | – | – | – | 0.5287 and 0.4964 and 0.9933 and 0.8884 | 1.178 and 0.9848 and 1.177 and 1.1855 | 0.9255 and 0.9659 and 1.077 and 0.7883 | 0.8369 and 1.036 and 0.7156 and 1.104 |
